Series [1] concerns the target T1, Recombinant PP1 (human PP1α residues 7–300) (Homo sapiens, UniProt P62136).
T1 construct: human PP1α (residues 7–300); His; made in house; host or cells: BL21 (DE3) Escherichia coli, co-expressed with GroEL/GroES chaperones
Put plainly: Surface plasmon resonance direct binding to immobilized PP1. The settings on record: SPR. The procedure: PP1 was purified as previously described. BL21 (DE3) Escherichia coli cells (Invitrogen, Carlsbad, CA, USA) were -transformed with a vector expressing human PP1α (residues 7–300) and pGR07, which expresses GroEL/[…] chaperones (both gifts from Dr Mathieu Bollen and Monique Beullens, KU Leuven, Belgium). The cells were grown in media supplemented with 1 mM MnCl2 at 30°C to an A600 =0.5. Arabinose (2 g per L) was added to induce expression of the GroEL/GroES chaperones. When A600 =1 was reached, the cells were transferred to 10°C and PP1 expression was induced with 0.1 mM Isopropyl β-D-1-thiogalactopyranoside for 20 hrs. Harvested cells were lysed using sonication in a solution containing in 50 mM Tris-HCl (pH 8.0), 5 mM imidazole, 700 mM NaCl, 1 mM MnCl2, 0.1% Triton X-100 (v/v) and protease inhibitors. His-tagged PP1 was purified using a Ni-NTA IMAC column (Qiagen, Valencia, CA, USA). Purified PP1 was dialyzed and stored at −70°C in 50 mM Tris-HCl (pH 8.0), 5 mM imidazole, 700 mM NaCl and 1 mM MnCl2. PP1 activity was then assayed as previously described.
The SPR measurements were conducted on Biacore T200 instrument (GE Healthcare, Piscataway, NJ) at 25°C. Recombinant PP1 was immobilized on a CM5 chip by amine coupling (GE Healthcare). PP1 (200 nM) was captured on flow cell 2 in 10 mM acetate buffer, pH 5.0, supplemented with 2 mM MnCl2. […] Flow cell 1 was used as a reference surface to subtract background signal. Also injections of the buffer alone were used to provide double reference subtraction. […] For binding and kinetics experiments, all compounds were diluted in the running buffer, at 40 μM, 20 μM, 10 μM, 5 μM, 2.5 μM, 1.25 μM and 0 μM and then passed over the two flow cells at a flow rate of 100 μl/min for 60 sec. The number of response units was recorded after the subtraction of the reference flow cell's value (Fc2-1). Two repetitions were performed for each injection. Data were analyzed using the BiaEvaluation software of Biacore with a 1:1 binding model. […] All the small molecular weight compounds were used at 1 μM.
A general note: SPR reads the build-up and loss of mass on a sensor chip optically.

A short description of series [2]: Stability in human liver microsomes. The settings on record: 1 hr; for % of Total (Liver microsomes, Human): 10 μM 1E7-03, 37°C, 1E7-03 remaining and DP1, DP3 formed. The format is in vitro ADME. The procedure: The metabolic stability of 1E7-03 was also investigated using a pool of human and mouse liver microsomes (HMS9PL, MSS9PL, Thermo Scientific) following manufacturer's instructions. In brief, incubations were conducted at 37 ± 1°C in mixtures containing 5 μl of human or mouse liver microsomes (20 mg/ml), 183 μl of potassium phosphate buffer (pH 7.4, 100 mM) and 2 μl of 1E7-03 (10 mM sock solution of 1E7-03 in DMSO was diluted into 1 mM by PBS). The mixture was pre-incubated for 5 min, then initiated the reactions with the addition of 10 μl 20 mM NADPH (Sigma Aldrich). The reactions were terminated after 1 hr incubation by adding 800 μl cold acetone. The mixture was kept at 4°C for 30 min, and the precipitated protein was removed by centrifugation (13, 000 g for 10 min at 4°C). A 250 μl aliquot of supernatant was transferred to a clean test tube and evaporated to dryness using a SpeedVac concentrator. The residue was reconstituted in 50 μl of acetonitrile with 0.1% FA for LC/FT-MS analysis.
A general note: Liver microsomes are a subcellular fraction often used to study metabolism.

The next series relates to CEM T cells. Kind of series: Cellular permeability assay by LC/FT-MS. The format is in vitro ADME. The following applies: 10 μM, 24 hrs; for CEM T cell permeability, % of Total, Cells: accumulation in cell lysate. The procedure:
CEM T cells were seeded in 6-well plates (0.5 × 10^6 cells/ml) and treated by 10 μM of the indicated compounds. Two samples were generated for each compound (in triplicates) obtained from cellular lysate and media sample. Cell culture media samples (100 μl) were collected from each well after 24 hrs of incubation and total protein was precipitated by the addition of 400 μl cold acetone. […] To obtain cell lysates, the cells were suspended in 300 μl cold whole cell lysis buffer (50 mM Tris-HCl, pH 7.5, 0.5 M NaCl, 1% NP-40, 0.1% SDS) and sonicated. A 100 μl aliquot of the cell lysate was combined with 400 μl cold acetone to precipitate proteins. All samples were centrifuged at 13,000 × g for 5 min. Supernatants containing compounds and their metabolites were collected and evaporated to dryness on SpeedVac concentrator. The dry pellet was reconstituted in 50 μl acetonitrile for LC/FT-MS analysis.

Series [3] addresses T2, QuantiLum Recombinant Luciferase (Photinus pyralis, UniProt P08659).
T2 construct: purchased
Put plainly: Purified luciferase inhibition in vitro. The format is biochemical. The following applies: for effect on luciferase activity in vitro: in words, 1E7-03 at concentrations below 100 μM; for IC50: purified luciferase, room temperature, 10 min. The procedure: QuantiLum Recombinant Luciferase (20 ng/ml in PBS) was added into 96-well plate (100 μl/well) and incubated with serial dilutions of the compounds or vehicle (DMSO) under room temperature for 10 min. 100 μl of reconstituted luciferase buffer (Luclite Kit, Perkin Elmer) was added to each well, incubated for another 10 min and luminescence was measured using Glo-Max Microplate Multimode reader (Promega).

A further series has as its target T3, PP1 (Homo sapiens, UniProt P62136).
T3 construct: human PP1α (residues 7–300); His; made in house; host or cells: BL21 (DE3) Escherichia coli, co-expressed with GroEL/GroES chaperones
Kind of series: SPR competition with pRb-Tat peptide for binding to PP1. The following applies: compounds at 1 μM; for fold reduction of the binding of pRb-Tat to PP1: pRb-Tat 10-100 nM. The procedure:
The SPR measurements were conducted on Biacore T200 instrument (GE Healthcare, Piscataway, NJ) at 25°C. Recombinant PP1 was immobilized on a CM5 chip by amine coupling (GE Healthcare). PP1 (200 nM) was captured on flow cell 2 in 10 mM acetate buffer, pH 5.0, supplemented with 2 mM MnCl2. The average amount of PP1 immobilized on the surface was 3160 RU. Flow cell 1 was used as a reference surface to subtract background signal. Also injections of the buffer alone were used to provide double reference subtraction. To measure the direct binding of small molecules to PP1, the two flow cells of the sensor chip were primed with running buffer (0.01 M HEPES pH 7.4, 0.15 M NaCl, 0.005% v/v Surfactant P20, 1% DMSO and 2 mM MnCl2). For binding and kinetics experiments, all compounds were diluted in the running buffer, at 40 μM, 20 μM, 10 μM, 5 μM, 2.5 μM, 1.25 μM and 0 μM and then passed over the two flow cells at a flow rate of 100 μl/min for 60 sec. The number of response units was recorded after the subtraction of the reference flow cell's value (Fc2-1). Two repetitions were performed for each injection. Data were analyzed using the BiaEvaluation software of Biacore with a 1:1 binding model. […] All the small molecular weight compounds were used at 1 μM.

Where [4] appears, read: 1:1 binding model, 25°C, read-out: PP1 WT KD.
Setting [5] is: as quoted in the discussion, read-out: KD.

Here are results for four compounds from article PMC5652740, “Inhibition of HIV-1 infection in humanized mice and metabolic stability of protein phosphatase-1-targeting small molecule 1E7-03” (Oncotarget, 2017).

Molecules are shown by their SMILES. Several values for one entry are separate records, joined by “and”; a condition that tells them apart may be missing. Equal entries are not always repeated. Where two headings read alike, the source gives them in different places.

T3 sequence (P62136 7-300): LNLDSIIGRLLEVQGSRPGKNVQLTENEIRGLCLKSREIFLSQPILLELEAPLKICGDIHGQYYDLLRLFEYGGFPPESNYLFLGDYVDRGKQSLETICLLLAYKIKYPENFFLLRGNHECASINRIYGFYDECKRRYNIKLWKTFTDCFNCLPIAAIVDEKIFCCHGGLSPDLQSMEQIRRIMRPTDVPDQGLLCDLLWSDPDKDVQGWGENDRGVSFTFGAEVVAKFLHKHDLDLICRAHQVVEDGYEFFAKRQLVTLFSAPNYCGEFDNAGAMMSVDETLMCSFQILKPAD
T1 sequence (P62136 7-300): as above
T2 sequence (P08659 whole entry): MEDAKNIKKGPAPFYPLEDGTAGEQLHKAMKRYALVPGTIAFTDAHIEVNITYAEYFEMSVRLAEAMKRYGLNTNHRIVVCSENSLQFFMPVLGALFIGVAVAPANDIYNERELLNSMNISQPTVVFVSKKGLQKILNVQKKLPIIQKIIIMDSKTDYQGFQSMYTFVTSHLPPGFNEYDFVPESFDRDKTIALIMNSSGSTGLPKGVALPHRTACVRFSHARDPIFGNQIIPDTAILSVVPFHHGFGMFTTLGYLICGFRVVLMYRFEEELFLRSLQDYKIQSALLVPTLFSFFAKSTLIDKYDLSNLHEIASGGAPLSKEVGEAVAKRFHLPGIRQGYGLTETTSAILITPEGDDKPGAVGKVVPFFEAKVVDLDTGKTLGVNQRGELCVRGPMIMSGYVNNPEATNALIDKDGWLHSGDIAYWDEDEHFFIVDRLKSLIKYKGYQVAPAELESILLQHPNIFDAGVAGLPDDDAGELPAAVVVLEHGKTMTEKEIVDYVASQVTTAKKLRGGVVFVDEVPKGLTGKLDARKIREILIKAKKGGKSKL

Regarding `CCNC(=O)NC(=O)C(C)OC(=O)c1c2c(nc3ccccc13)/C(=C/c1ccc(OC)c(OC)c1)CC2` (centres unmarked) [1E7-03], the results for the Kd in series [1] (setting [4]) and in series [1] (setting [5]) were 6.16 µM and 6.2 µM, respectively. Further, the “% of Total (Liver microsomes, Human)” value in series [2] amounted to 59.39%. For the same compound, the “% of 1E7-03 degraded and converted into DP1” value in series [2] (human liver microsomes) turned out to be 39%. In addition, in the series on CEM T cells (37°C), the “CEM T cell permeability, % of Total, Cells” value is 3%. For the same compound, the “effect on luciferase activity in vitro” value in series [3] is “no effect”. Also, in series [3], the IC50 (as a rule, the concentration needed to halve the response being measured) is over 180 µM. Also, the “fold reduction of the binding of pRb-Tat to PP1” value (shortened to “fold reduction”) at PP1 is 2-2.5 fold.
For `COc1ccc(/C=C2\CCCc3c2nc2ccccc2c3C(=O)OC(C)C(=O)OC(C)(C)C)cc1OC` (centres unmarked) [DP1-07], in the series on CEM T cells (37°C), the “CEM T cell permeability, % of Total, Cells” value is 2.7% and 2.73%. Further, in the series with CEM T cells (37°C, amount in media), the “CEM T cell permeability, % of Total, Media” value turned out to be 97.27%. In series [3], the “effect on luciferase activity in vitro” value is “did not inhibit”.
`COc1ccc(/C=C2\CCc3c2nc2ccccc2c3C(=O)OC(C)C(=O)O)cc1OC` (centres unmarked) [DP1]: the Kd (usually the equilibrium constant for the complex coming apart) was 3.75 µM in series [1] (setting [4]) and about 4 µM in series [1] (setting [5]). Besides, the “% of Total (Liver microsomes, Human)” value in series [2] is given as 39.34%. Also, in the series on CEM T cells (CEM T cells), the “times less efficient cellular accumulation than 1E7-03” value is recorded as “more than 10 times”. Also, in series [3], the half-maximal inhibitory concentration (IC50) turned out to be 37 µM. The “competition with pRb-Tat for binding to PP1” value on PP1 (in words) is listed as “best competitor”. Moreover, the “fold reduction” value at PP1 was 10 fold.
On to `COc1ccc(/C=C2\CCc3c2nc2ccccc2c3C(=O)O)cc1OC` [DP3], for which the Kd in series [1] (setting [4]) was 4.88 µM; in series [1] (setting [5]), about 4 µM. For the same compound, the “% of Total (Liver microsomes, Human)” value in series [2] worked out at 1.27%. For the same compound, in series [3], the IC50 was 7.2 µM. Besides, the “fold reduction” value on PP1 is 2-2.5 fold.
